Test results published in patent US20010027216A1, “Method for preventing hormone induced adverse effects” (priority 2000, published 2001).
“Also recorded” adds a separate entry of the source.

What was measured:
Format in all cases: cell-based, human
[1] = tested on: ECC-1 endometrial cancer cells; assay: ECC-1 cell proliferation, [3H]thymidine incorporation into DNA; conditions: for cell proliferation rate (cpm): concentration range 0.01 to 4 μM (FIG. 1 panel A); for effect on endometrial cancer cell growth over increasing concentrations: three days
Procedure: Cells were cultured in DMEM containing penicillin (100 U/ml), streptomycin (0.1 mg/ml)) nystatin (12.5 (g/ml), insulin (0.6 (g/ml), and 10% FCS. Cells were stripped of endogenous steroids according to the procedure of Vignon et al. (1987, Biochem. Biophys. Res. Comm., 146:1502-8) by successive passages in medium without phenol red containing 10% and then 3% of charcoal-stripped FCS. Cells were seeded into 96 multiwell plates (5,000 cells per well) in DMEM containing 3% of charcoal-stripped FCS. After one day the medium was changed to one containing the solubilized carotenoid or THF alone. The medium was changed daily to ensure a continuous supply of carotenoid. After incubation, the number of cells and the rate of cell proliferation were estimated by the incorporation of [^3H]thymidine incorporation into cellular DNA, as described in U.S. Pat. No. 5,827,900. Cell growth was also measured by direct cell counting with a Coulter counter after trypsinization and dilution in Isotone-II (Coulter Electronics, Luton, England). A good correlation was found between the two methods. ECC-1 cells were incubated with increasing concentrations of the isoflavones genistein and daidzein, the two primary isoflavones in soy products, and with soy extract. Cell proliferation after three days was measured by [^3H]thymidine incorporation into DNA (FIG. 1, panel A). […] ECC-1 cells were also incubated with a single high concentration (40 μM) of each of genistein, daidzein and soy extract. Cell proliferation was assayed daily over the course of three days.

[2] = tested on: MDA-231 mammary cancer cells; assay: MDA-231 cell proliferation, [3H]thymidine incorporation
Procedure: (§1) Cells were cultured in DMEM containing penicillin (100 U/ml), streptomycin (0.1 mg/ml)) nystatin (12.5 (g/ml), insulin (0.6 (g/ml), and 10% FCS. Cells were stripped of endogenous steroids according to the procedure of Vignon et al. (1987, Biochem. Biophys. Res. Comm., 146:1502-8) by successive passages in medium without phenol red containing 10% and then 3% of charcoal-stripped FCS. Cells were seeded into 96 multiwell plates (5,000 cells per well) in DMEM containing 3% of charcoal-stripped FCS. After one day the medium was changed to one containing the solubilized carotenoid or THF alone. The medium was changed daily to ensure a continuous supply of carotenoid.
(§2) After incubation, the number of cells and the rate of cell proliferation were estimated by the incorporation of [^3H]thymidine incorporation into cellular DNA, as described in U.S. Pat. No. 5,827,900. Cell growth was also measured by direct cell counting with a Coulter counter after trypsinization and dilution in Isotone-II (Coulter Electronics, Luton, England). A good correlation was found between the two methods.
Thus genistein not only stimulates hormone-dependent cancer cell proliferation, but IGF-I as well as other growth factors further augment this effect.

[3] = tested on: MCF-7 mammary cancer cells; assay: MCF-7 cell proliferation, [3H]thymidine incorporation; conditions: for phytoestrogen-induced cell proliferation: genistein 4 μM
Procedure: as §1, §2
The comparative effects of estradiol and genistein supplementation on the proliferation of the hormone-dependent cell lines MCF-7 mammary cancer and ECC-1 endometrial cancer were examined (FIG. 2).
MCF-7 mammary cancer cells were stimulated by genistein (4 μM) and test cultures were additionally supplemented with lycopene or phytoene or a combination of both, at either physiological concentrations (FIG. 6, panel A) or at about one order of magnitude greater than the physiological concentrations (FIG. 6, panel B).

[4] = stimulated by estradiol at 10 nM (FIG. 4)
[5] = stimulated by genistein at 1 μM (FIG. 4)
[6] = 40 μM, after one day of incubation (FIG. 1, panel B)
[7] = 0.4 and 4 μM, after three days (FIG. 1, panel A)
[8] = lycopene 3 to 5 μM, IGF-1 30 nM
[9] = high, non-physiological concentrations of the individual carotenoids (FIG. 6, panel B)
[10] = lycopene 3 to 5 μM, three days in culture

CC1=C(/C=C/C(C)=C/C=C/C(C)=C/C=C/C=C(C)/C=C/C=C(C)/C=C/C2=C(C)C(=O)[C@@H](O)CC2(C)C)C(C)(C)C[C@H](O)C1=O [astaxanthin]
estradiol-induced cell proliferation [1, 4]: effectively inhibited | genistein-induced cell proliferation [1, 5]: effective inhibitors; also recorded: effectively inhibited

CC1=C(/C=C/C(C)=C/C=C/C(C)=C/C=C/C=C(C)/C=C/C=C(C)/C=C/C2=C(C)CCCC2(C)C)C(C)(C)CCC1 [beta-carotene]
estradiol-induced cell proliferation [1, 4]: effectively inhibited | genistein-induced cell proliferation [1, 5]: effective inhibitors; also recorded: effectively inhibited

O=c1c(-c2ccc(O)cc2)coc2cc(O)ccc12 [daidzein, reference compound]
cell proliferation [1, 6]: significantly increases cell proliferation; also recorded: stimulated cell proliferation | cell proliferation [1, 7]: stimulated cell proliferation | cell proliferation rate (cpm) [1]: significant increase in cell proliferation rate | effect on endometrial cancer cell growth over increasing concentrations [1]: only stimulatory

O=c1c(-c2ccc(O)cc2)coc2cc(O)cc(O)c12 [genistein, reference compound]
stimulation of cell growth by genistein ([2]; FIG. 3, panel B): not by genistein | effect on proliferation over increasing concentrations ([3]; increasing concentrations (FIG. 2, panel A)): biphasic effects on proliferation, stimulating at low concentrations and inhibiting at high concentrations | stimulatory effect of genistein in the presence of IGF-I ([3]; with IGF-1 30 nM (FIG. 3, panel A)): further augmented | cell proliferation [1, 6]: significantly increases cell proliferation; also recorded: stimulated cell proliferation | cell proliferation ([1]; 40 μM, second day in culture (FIG. 1, panel B)): inhibitory effects | cell proliferation [1, 7]: stimulated cell proliferation | cell proliferation rate (cpm) [1]: significant increase in cell proliferation rate | cell proliferation ([1]; higher, non-physiological concentrations (10 μM), after three days in culture (FIG. 1, panel A)): inhibited cell proliferation | effect on endometrial cancer cell growth over increasing concentrations [1]: biphasic effects on proliferation, stimulating at low concentrations and inhibiting at high concentrations

CC(C)=CCC/C(C)=C/C=C/C(C)=C/C=C/C(C)=C/C=C/C=C(C)/C=C/C=C(C)/C=C/C=C(\C)CCC=C(C)C [lycopene]
IGF stimulation of cell growth [2, 8]: inhibits IGF stimulation | cell proliferation compared with controls [2, 8]: reduced to levels less than that of controls | phytoestrogen-induced cell proliferation [3, 9]: effective in significantly inhibiting | phytoestrogen-induced cell proliferation ([3]; low (physiological) concentration: lycopene 0.4 μM, mixture of phytoene and phytofluene 6 μM (FIG. 6, panel A)): do not significantly affect | IGF stimulation of cell growth [3, 8]: inhibits IGF stimulation | basal growth [3, 10]: significantly inhibited | estrogen-induced (either genistein or estradiol) growth [3, 10]: substantially inhibited; also recorded: significantly inhibited | estradiol-induced cell proliferation ([1]; estradiol 10 nM, various concentrations of lycopene, lowest 0.9 μM (FIG. 5)): all lycopene concentrations tested were effective in inhibiting | genistein-induced cell proliferation ([1]; genistein 1 μM, various concentrations of lycopene, lowest 0.9 μM (FIG. 5)): all lycopene concentrations tested were effective in inhibiting | basal growth [1, 10]: significantly inhibited | estrogen-induced (either genistein or estradiol) growth [1, 10]: substantially inhibited; also recorded: significantly inhibited | estradiol-induced cell proliferation [1, 4]: effectively inhibited | genistein-induced cell proliferation [1, 5]: effective inhibitors; also recorded: effectively inhibited

CC(C)=CCC/C(C)=C/CC/C(C)=C/CC/C(C)=C/C=C/C=C(\C)CC/C=C(\C)CC/C=C(\C)CCC=C(C)C [phytoene]
phytoestrogen-induced cell proliferation [3, 9]: effective in significantly inhibiting | genistein-induced cell proliferation [1, 5]: effective inhibitors

IGF-1: Human recombinant IGF-1 purchased from GroPep
cell growth ([2]; IGF-1 30 nM (FIG. 3, panel B)): significantly stimulates cell growth | cell growth ([3]; IGF-1 30 nM (FIG. 3, panel A)): significantly stimulates cell growth
